Earlier results as cited in patent US20070212387A1, “COATINGS FOR IMPLANTABLE MEDICAL DEVICES” (Sahajanand Medical Technologies Pvt. Ltd., priority 2006, published 2007).

Experiments:
[1] = in water

| water solubility [1] | Compound | concentration preventing collagen induced platelet aggregation (platelets) |
| --- | --- | --- |
| practically insoluble in water | O=c1c(-c2ccc(O)cc2)coc2cc(O)cc(O)c12 [Genistein, 5,7-dihydroxy-3-(4-hydroxyphenyl)-4H-1-benzopyran-4-one] | more than 25 μM |
| greater water solubility than genistein | O=c1c(-c2ccc(O)cc2)coc2cc(O[C@@H]3O[C@H](CO)[C@@H](O)[C@H](O)[C@H]3O)cc(O)c12 [Genistin] | – |
| practically insoluble in water | O=c1c(O)c(-c2ccc(O)c(O)c2)oc2cc(O)cc(O)c12 [Quercetin, 2-(3,4-dihydroxyphenyl)-3,5,7-trihydroxy-4H-1-benzopyran-4-one] | – |
